These are literature values, as cited in paper PMC9177108 (The Oncologist, 2022).

In one data set the test system is patients with RM-NPC. The conditions noted are these: 37 recruited patients with RM-NPC; cited from earlier work.
A further data set deals with NPC patients. The conditions noted are these: 58 NPC patients, cited from earlier work.
Data set [1] deals with relapsed and refractory patients with NPC. Conditions: cited from earlier work.
The next data set concerns patients with NPC. The conditions noted are these: 33 patients with NPC; cited from earlier work.
Data set [2] deals with patients with advanced NPC. The conditions noted are these: first-line regimen; cited from earlier work.

Regarding `CNC(=O)c1ccccc1Sc1ccc2c(/C=C/c3ccccn3)n[nH]c2c1` [Axitinib], in the data set with patients with RM-NPC, the DCR is recorded as 78.4, the ORR is on record as 19%, the “median PFS” value is on record as 5 months and the “overall survival (OS)” value is given as 10 months.

For `CCN(CC)CCN1CCc2[nH]c(/C=C3\C(=O)Nc4ccc(F)cc43)c(C)c2C1=O` [Famitinib], in the data set with NPC patients, the ORR is listed as 6.9% and the “median PFS” value is recorded as 3.2 months. In addition, the DCR with NPC patients (at 3 months) was 32.8%.

For `N#CC1(c2ccc(NC(=O)c3cccnc3NCc3ccncc3)cc2)CCCC1` [apatinib], the ORR in data set [1] (51 patients (16/51), no response to first- or second-line chemotherapy) was 31.4%. Besides, in data set [1] (51 patients), the OS is given as 16 months and the “median PFS” value is 9 months.

For the compound `Cc1ccc(Nc2nccc(N(C)c3ccc4c(C)n(C)nc4c3)n2)cc1S(N)(=O)=O` [pazopanib], the ORR in the data set on patients with NPC is 6.1%.

For the compound cisplatin and 5-fluorouracil, in data set [2], the “median PFS” value is given as 11-14 months and the response rate is reported as 66-78%.
